Experimental findings from publication PMC8521193, “A Novel Polyphenol Oxidoreductase OhLac from Ochrobactrum sp. J10 for Lignin Degradation” (Frontiers in Microbiology, 2021) are described below.

Common to all, as to test: spectrophotometric oxidation, […] nm
Common to all, as to type: biochemical

Test [1] deals with T1, OhLac.
T1 construct: full length, 837 bp ORF, 279 aa as printed, about 31 kDa; pET28a(+) NcoI/XhoI; N-terminal His6 printed (these sites would rather give a C-terminal His6); E. coli BL21(DE3), Ni-NTA; monomer
Conditions: pH 5.0, 30°C, Cu2+ 5.00 mM.

Test [2] deals with T1, OhLac. Conditions: pH 3.0, 50°C, Cu2+ 0.25 mM.
Test [3] has as its system T1, OhLac. Conditions: pH 5.0, 40°C, Cu2+ 0.50 mM.

Each structure is given as a SMILES string.

One may read the Km as the concentration of substrate that gives half-maximal velocity. Take `COc1cccc(OC)c1O` [2,6-DMP]: in the test with OhLac [1], the Km worked out at 1130 µM.

Turning to `CCn1c(=NN=c2sc3cc(S(=O)(=O)O)ccc3n2CC)sc2cc(S(=O)(=O)O)ccc21` [ABTS], the Michaelis-Menten constant (Km) in the test with OhLac [2] was 1060 µM.

`COc1ccccc1O` [guaiacol]: the Km with OhLac [3] came out at 523 ± 9.2 µM.
